Test results: ChEMBL document CHEMBL1201862, “PubChem BioAssay data set” (2004)
Active and inactive are the calls of the source.

Assays:
HEK293 = experiment: Fluorescence-based counterscreen for potentiators or agonists of NPY-Y2: cell-based high-throughput dose response assay to identify inhibitors of cyclic nucleotide gated ion channel (CNGC) activity. In this assay, the parental HEK293 cell line transfected with a cyclic-nucleotide gated ion channel (CNGC)-based cAMP sensor is used to measure inhibition of isoproterenol-induced CNGC activity by test compound.; format: functional; conditions: Homo sapiens;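 note: stimulus is 1 µM isoproterenol at EC100 plus PDE inhibitor Ro 20-1724 at 25 µM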
[1] = target: Neuropeptide Y receptor type 2 (Homo sapiens, UniProt P49146); experiment: Fluorescence-based cell-based high-throughput dose response assay for agonists of NPY-Y2. [Related pubchem assays: 1703 (Screening assay (CNGC inhibitors).), 1359 (Screening assay (NPY-Y2 potentiators or agonists).), 1304 (Screening assay (NPY-Y1 potentiators or agonists).), 1710 (Screening assay (NPY-Y2 agonists).), 1791 (Summary AID.)]; format: functional
Chain of Neuropeptide Y receptor type 2 (P49146 whole entry): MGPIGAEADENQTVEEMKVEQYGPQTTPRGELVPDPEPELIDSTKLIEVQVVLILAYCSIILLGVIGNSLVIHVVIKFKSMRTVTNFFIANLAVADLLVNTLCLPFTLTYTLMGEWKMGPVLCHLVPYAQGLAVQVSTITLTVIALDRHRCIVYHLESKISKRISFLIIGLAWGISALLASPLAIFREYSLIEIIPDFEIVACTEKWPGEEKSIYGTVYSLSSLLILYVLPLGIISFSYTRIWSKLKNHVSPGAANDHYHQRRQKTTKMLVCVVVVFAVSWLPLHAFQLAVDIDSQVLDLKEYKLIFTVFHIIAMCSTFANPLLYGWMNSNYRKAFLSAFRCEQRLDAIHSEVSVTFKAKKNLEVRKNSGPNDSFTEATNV

[2] = target: Neuropeptide Y receptor type 1 (Homo sapiens, UniProt P25929); experiment: Fluorescence-based counterscreen for agonists of NPY-Y2: cell-based high-throughput dose response assay for agonists of NPY-Y1.; format: functional
Chain of Neuropeptide Y receptor type 1 (P25929 whole entry, the tested form may be a part): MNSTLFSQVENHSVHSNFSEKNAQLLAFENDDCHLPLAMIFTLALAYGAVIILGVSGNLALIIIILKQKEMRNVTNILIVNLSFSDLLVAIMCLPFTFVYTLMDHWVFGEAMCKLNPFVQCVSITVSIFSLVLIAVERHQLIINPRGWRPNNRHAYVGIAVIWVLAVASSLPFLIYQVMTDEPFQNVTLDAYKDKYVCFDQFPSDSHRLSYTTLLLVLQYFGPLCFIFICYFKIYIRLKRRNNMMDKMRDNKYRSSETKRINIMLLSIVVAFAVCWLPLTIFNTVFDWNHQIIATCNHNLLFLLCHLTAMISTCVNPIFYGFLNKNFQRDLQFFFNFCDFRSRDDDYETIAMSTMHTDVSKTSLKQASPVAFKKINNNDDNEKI

[3] = HIV-1 Env-mediated cell fusion inhibitors, dose response, CCR5-tropic Env (AID 2279); format: functional
[4] = target: Induced myeloid leukemia cell differentiation protein Mcl-1 (Homo sapiens, UniProt Q07820); format: functional
Chain of Induced myeloid leukemia cell differentiation protein Mcl-1 (Q07820 whole entry): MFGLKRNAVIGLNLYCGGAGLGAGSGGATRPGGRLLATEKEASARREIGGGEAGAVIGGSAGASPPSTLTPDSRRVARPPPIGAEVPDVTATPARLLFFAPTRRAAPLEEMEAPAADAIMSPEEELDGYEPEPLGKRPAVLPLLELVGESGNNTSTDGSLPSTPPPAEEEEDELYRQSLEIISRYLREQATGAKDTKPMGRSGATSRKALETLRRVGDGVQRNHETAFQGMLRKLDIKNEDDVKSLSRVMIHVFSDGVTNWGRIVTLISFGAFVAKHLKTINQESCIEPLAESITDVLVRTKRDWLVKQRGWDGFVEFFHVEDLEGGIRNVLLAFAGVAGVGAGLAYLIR

[5] = cytotoxicity in HEK-293T cells, dose response, cytotoxicity control for BCR NF-kB inhibitor project, luminescence, B-cell screen hits (AID 489021); format: functional, cell-based;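 note: HEK-293T cells carrying an NF-kB luciferase reporter; cells exposed to compound for about 14 hours before viability readout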
Protein Rev = Protein Rev (Human immunodeficiency virus type 1 group M subtype B (isolate HXB2)(HIV-1), UniProt P04618); experiment: inhibitors of Rev binding to RRE RNA, dose response, biochemical, fluorescence polarization, HIV-1 (AID 434976); set-up: species or system Human immunodeficiency virus 1
Chain of Protein Rev (P04618 whole entry): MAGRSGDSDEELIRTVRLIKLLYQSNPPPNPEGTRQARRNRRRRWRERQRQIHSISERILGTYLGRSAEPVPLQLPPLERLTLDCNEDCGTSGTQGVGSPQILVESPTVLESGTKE

[6] = target: Female germline-specific tumor suppressor gld-1 (Caenorhabditis elegans, UniProt Q17339); experiment: inhibitors of GLD-1 binding to TGE RNA, dose response, biochemical, fluorescence polarization, C. elegans (AID 2802);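 note: fluorescence polarization of labeled TGE RNA bound by purified gld-1 protein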
Chain of Female germline-specific tumor suppressor gld-1 (Q17339 whole entry): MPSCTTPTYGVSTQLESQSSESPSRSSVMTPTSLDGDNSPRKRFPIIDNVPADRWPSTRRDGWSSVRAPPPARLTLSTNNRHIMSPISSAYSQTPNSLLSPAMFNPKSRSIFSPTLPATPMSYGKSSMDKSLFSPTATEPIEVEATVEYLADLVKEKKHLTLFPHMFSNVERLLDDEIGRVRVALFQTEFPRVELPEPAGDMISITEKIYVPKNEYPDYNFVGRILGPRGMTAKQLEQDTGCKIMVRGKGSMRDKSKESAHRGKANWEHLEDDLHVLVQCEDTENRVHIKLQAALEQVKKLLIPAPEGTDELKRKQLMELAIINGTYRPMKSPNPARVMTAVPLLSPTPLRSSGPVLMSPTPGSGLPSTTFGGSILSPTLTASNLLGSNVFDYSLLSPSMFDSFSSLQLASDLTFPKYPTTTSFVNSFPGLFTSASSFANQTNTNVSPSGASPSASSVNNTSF

[7] = Luminescence Cell-Based Dose-Confimation HTS to Identify Inhibitors of 5'UTR Stem-Loop Driven Alpha-Synuclein mRNA Translation in H4 Neuroglioblastoma Cells. [Related pubchem assays: 1827 (Project Summary), 1813 (Primary HTS)]; format: functional
[8] = Luminescence Cell-Based Dose Confirmation HTS to Identify Activators of 5'UTR Stem-Loop Driven Alpha-Synuclein mRNA Translation in H4 Neuroglioblastoma Cells. [Related pubchem assays: 1829 (Project Summary), 1814 (Primary HTS)]; format: functional
[9] = Luminescence Cell-Based Dose Response HTS to Identify Activators of Luciferase Translation or Activity in H4 […] Cells. [Related pubchem assays: 1829 (Project Summary), 1814 (Primary HTS)]; format: functional
H4 = experiment: Luminescence Cell-Based Dose Response HTS to Identify Activators of 5'UTR Stem-Loop Driven Prion Protein mRNA Translation in H4 Neuroglioblastoma Cells. [Related pubchem assays: 1829 (Project Summary), 1814 (Primary HTS)]; format: functional; conditions: Homo sapiens
[10] = target: T1, Alkaline phosphatase, tissue-nonspecific isozyme (Homo sapiens, UniProt P05186)
T1 sequence (P05186 whole entry): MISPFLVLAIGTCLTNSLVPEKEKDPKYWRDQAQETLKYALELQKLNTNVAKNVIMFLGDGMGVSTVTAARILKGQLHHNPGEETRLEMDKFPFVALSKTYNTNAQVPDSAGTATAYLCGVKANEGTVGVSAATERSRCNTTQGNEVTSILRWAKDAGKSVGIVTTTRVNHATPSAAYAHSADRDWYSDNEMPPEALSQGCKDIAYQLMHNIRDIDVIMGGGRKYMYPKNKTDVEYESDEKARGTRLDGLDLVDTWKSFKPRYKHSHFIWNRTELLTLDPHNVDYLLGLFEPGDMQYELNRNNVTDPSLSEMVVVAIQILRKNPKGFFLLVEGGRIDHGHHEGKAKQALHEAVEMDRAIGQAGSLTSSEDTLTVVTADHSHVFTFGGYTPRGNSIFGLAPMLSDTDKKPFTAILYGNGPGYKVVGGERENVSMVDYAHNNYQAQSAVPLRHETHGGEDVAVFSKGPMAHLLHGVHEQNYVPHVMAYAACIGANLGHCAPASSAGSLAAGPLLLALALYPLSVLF

[11] = Luminescence-based cell-based high throughput dose response assay to identify activators of the DAF-12 from the parasite S. stercoralis (ssDAF-12).; format: functional
[12] = target: Dual specificity protein phosphatase 3 (Homo sapiens, UniProt P51452); experiment: VHR1 inhibitor Ki determination, SAR follow-up, biochemical, colorimetric (AID 2004)
Chain of Dual specificity protein phosphatase 3 (P51452 whole entry): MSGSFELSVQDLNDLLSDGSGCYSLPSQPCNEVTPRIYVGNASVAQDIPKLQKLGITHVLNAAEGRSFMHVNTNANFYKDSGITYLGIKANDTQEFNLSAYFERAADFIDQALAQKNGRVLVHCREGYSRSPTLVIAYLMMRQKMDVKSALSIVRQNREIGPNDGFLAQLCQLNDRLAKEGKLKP

Estrogen receptor = Estrogen receptor (Homo sapiens, UniProt P03372);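 note: potency for inhibiting coactivator peptide recruitment to the receptor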
Chain of Estrogen receptor (P03372 whole entry): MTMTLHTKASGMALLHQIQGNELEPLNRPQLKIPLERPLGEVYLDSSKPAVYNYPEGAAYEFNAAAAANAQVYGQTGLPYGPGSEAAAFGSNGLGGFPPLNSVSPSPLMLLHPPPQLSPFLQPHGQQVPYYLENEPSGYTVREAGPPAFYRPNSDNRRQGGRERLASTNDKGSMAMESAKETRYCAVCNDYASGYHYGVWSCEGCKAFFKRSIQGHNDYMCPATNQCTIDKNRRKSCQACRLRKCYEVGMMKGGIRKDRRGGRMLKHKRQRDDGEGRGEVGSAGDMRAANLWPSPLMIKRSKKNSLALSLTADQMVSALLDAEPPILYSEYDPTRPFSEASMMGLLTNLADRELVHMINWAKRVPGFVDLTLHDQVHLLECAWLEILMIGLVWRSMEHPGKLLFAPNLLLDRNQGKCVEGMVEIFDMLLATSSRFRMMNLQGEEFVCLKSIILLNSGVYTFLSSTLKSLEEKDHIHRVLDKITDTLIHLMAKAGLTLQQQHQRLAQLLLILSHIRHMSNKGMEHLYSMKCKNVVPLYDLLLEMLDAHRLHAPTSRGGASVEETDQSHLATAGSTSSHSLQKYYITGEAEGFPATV

[13] = target: G-protein coupled receptor 35 (Homo sapiens, UniProt Q9HC97); experiment: GPR35 antagonists blocking zaprinast-driven arrestin recruitment, primary screen, imaging, U2OS, beta-arrestin-GFP, zaprinast agonist (AID 2058); format: functional;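 note: antagonist potency meaning inhibition of agonist-induced arrestin redistribution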
Chain of G-protein coupled receptor 35 (Q9HC97 whole entry): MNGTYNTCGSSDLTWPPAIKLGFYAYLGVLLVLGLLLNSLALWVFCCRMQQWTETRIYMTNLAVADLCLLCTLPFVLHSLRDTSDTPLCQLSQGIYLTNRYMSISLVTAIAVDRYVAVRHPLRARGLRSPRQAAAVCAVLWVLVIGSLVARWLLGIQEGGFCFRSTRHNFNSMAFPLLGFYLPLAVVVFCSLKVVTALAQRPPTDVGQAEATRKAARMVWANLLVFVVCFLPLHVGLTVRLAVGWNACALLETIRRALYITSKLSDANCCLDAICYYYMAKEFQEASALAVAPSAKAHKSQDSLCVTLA

[14] = inhibition of ADP-Glo detection reagents, dose response, artefact control for CDK5 inhibitor project, biochemical, luminescence, cherry-picked samples, set 2 (AID 504546); format: functional
[15] = target: Cyclin-dependent kinase 5/CDK5 activator 1 (Homo sapiens, UniProt Q00535); experiment: CDK5/p35 kinase inhibitors, dose response, biochemical, cherry-picked samples, set 2 (AID 504545)
Chain of Cyclin-dependent kinase 5/CDK5 activator 1 (Q00535 whole entry): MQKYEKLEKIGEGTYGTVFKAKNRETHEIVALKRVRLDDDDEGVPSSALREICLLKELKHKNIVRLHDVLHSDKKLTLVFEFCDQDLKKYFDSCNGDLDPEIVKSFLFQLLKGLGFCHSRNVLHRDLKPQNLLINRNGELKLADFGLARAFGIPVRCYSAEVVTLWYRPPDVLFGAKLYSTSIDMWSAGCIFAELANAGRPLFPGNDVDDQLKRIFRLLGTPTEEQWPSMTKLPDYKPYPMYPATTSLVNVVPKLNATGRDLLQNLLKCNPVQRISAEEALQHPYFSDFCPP
Chain of Cyclin-dependent kinase 5/CDK5 activator 1 (Q15078 whole entry, further chain): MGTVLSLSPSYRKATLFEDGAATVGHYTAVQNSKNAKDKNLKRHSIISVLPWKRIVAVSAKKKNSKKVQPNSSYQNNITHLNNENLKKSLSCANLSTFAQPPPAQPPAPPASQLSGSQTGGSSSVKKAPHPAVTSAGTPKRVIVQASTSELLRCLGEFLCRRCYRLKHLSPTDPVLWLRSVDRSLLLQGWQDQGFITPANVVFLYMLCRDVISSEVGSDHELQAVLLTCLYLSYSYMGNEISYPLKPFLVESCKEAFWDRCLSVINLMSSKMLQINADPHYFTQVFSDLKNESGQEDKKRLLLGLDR

c1ccc(CSc2nc3c[nH]cnc-3n2)cc1
EC50 (HEK293): > 35.4 µM (not active) | EC50 [1]: > 35.4 µM (not active) | EC50 [2]: > 35.4 µM (not active)

COc1cc(/C=C2\SC(=O)N(Cc3ccc(F)cc3)C2=O)cc([N+](=O)[O-])c1O
IC50 [3]: 45.6 µM (active) | IC50 [4]: 7.65 µM (active)

O=C1CCCc2c1[nH]c1ccc(CN3CCCCC3)cc21
IC50 [5]: > 80 µM (inactive)

CCOC(=O)c1cc2c(ccn2C)n1CC(=O)N(Cc1ccccc1)c1ccc(F)cc1
IC50 (Protein Rev): > 75.4 µM (not active) | IC50 [6]: > 59.6 µM (inactive)

Nc1nc(CSc2nnnn2-c2ccccc2)nc(Nc2ccccc2)n1
EC50 [7]: 15.5 µM (active)

Cc1cc(C)c(C#N)c(SCc2nc3ccccc3[nH]2)n1
EC50 [8]: 0.262 µM (active) | EC50 [9]: 14.9 µM (active) | EC50 (H4): 44.6 µM (active) | EC50 [10]: > 100 µM (not active) | IC50 [11]: > 67.5 µM (inactive)

COc1cccc2c1NC(c1cccc3ccccc13)C1CC=CC21 (centres undefined)
Ki [12]: 141 µM (inactive)

CCCCOC(=O)c1cc(-c2ccc(/C=N/n3cnnc3)o2)ccc1Cl
IC50 (Estrogen receptor): > 50 µM (not active)

COc1ccc2nc3oc(C(=O)N4CCN(c5cccc(Cl)c5)CC4)cc3cc2c1
IC50 [13]: 2.14 µM (active)

Cc1occc1C(=O)N/N=C/c1ccc(N(C)C)cc1
AC50 [14]: 26.4 µM (active) | AC50 [15]: 19.5 µM (active)
